The values below are quoted from earlier work in patent publication US20250170152A1, “Cannabinoid Dosage Form” (priority 2022, published 2025).

Read-outs that look alike come from different tables or passages of the source.

Experiment in data set [1]: not given
The source holds these as a separate data set.

The conditions of data set [2]: oral THC formulations.
[3] abbreviates: oral 800 mg CBD, eight subjects (Haney et al., 2016).
The mark [4] stands for this setting: 20 mg/kg/day CBD groups, EMA LGS/DS Assessment Report (Epidiolex).

As for `C=C(C)C1CCC(C)=CC1c1c(O)cc(CCCCC)cc1O` (centres unmarked) [CBD, 2-[3-methyl-6-(1-methylethenyl)-2-cyclohexen-1-yl]-5-pentyl-1,3-benzenediol], the “mean Cmax” value is recorded as 0.93 ng/mL (one hour after oral capsule containing 5.4 mg CBD (Nadulski et al., 2005a)); 2.47 ng/mL (oral 10 mg CBD (Guy and Robson, 2004b)); 77.9 ng/mL under setting [3]; 1.13 ng/mL (oral capsule 5.4 mg CBD, subset (n=12) with standard breakfast meal 1 h after the capsules). Further, the “mean Tmax” value under setting [3] is recorded as 3.0 h. In addition, the “time CBD remained detectable after administration” value (oral capsule 5.4 mg CBD (Nadulski et al., 2005b)) is 3 to 4 h. The “TEAE decrease of appetite, incidence” value in data set [1] (setting [4]) was 22%. Also, the “weight loss, incidence” value in data set [1] (setting [4]) was 11%. For the same compound, the “TEAE of diarrhoea, incidence” value is on record as 12.9-21.2% in data set [1] (5-20 mg/kg/day, LGS/DS population (Epidiolex)) and 30.7-56.2% in data set [1] (25-50 mg/kg/day, TSC population, EMA TSC Assessment Report (Epidiolex)).

For `CCCCCc1cc(O)c2c(c1)OC(C)(C)[C@@H]1CCC(C)=C[C@@H]21` [THC, delta-9-tetrahydrocannabinol], the “delay to reach peak plasma concentration” value in data set [2] is on record as approximately 120 min.
